Here are results for three molecules from ChEMBL document CHEMBL5344407, “Histone deacetylases (HDACs) as the promising immunotherapeutic targets for hematologic cancer treatment” (Eur J Med Chem, 2023).

Experiment [1] addresses T1, Histone deacetylase 1 (Homo sapiens, UniProt Q13547). As to the kind of experiment: Inhibition of N-terminal GST-tagged full length human HDAC1 expressed in baculovirus system using FTS as substrate preincubated for 10 mins followed by substrate addition and measured after 2 hrs by fluorescence based analysis.
Experiment [2] has as its target T2, Protein deacetylase HDAC6 (Homo sapiens, UniProt Q9UBN7).
T2 sequence (Q9UBN7 whole entry): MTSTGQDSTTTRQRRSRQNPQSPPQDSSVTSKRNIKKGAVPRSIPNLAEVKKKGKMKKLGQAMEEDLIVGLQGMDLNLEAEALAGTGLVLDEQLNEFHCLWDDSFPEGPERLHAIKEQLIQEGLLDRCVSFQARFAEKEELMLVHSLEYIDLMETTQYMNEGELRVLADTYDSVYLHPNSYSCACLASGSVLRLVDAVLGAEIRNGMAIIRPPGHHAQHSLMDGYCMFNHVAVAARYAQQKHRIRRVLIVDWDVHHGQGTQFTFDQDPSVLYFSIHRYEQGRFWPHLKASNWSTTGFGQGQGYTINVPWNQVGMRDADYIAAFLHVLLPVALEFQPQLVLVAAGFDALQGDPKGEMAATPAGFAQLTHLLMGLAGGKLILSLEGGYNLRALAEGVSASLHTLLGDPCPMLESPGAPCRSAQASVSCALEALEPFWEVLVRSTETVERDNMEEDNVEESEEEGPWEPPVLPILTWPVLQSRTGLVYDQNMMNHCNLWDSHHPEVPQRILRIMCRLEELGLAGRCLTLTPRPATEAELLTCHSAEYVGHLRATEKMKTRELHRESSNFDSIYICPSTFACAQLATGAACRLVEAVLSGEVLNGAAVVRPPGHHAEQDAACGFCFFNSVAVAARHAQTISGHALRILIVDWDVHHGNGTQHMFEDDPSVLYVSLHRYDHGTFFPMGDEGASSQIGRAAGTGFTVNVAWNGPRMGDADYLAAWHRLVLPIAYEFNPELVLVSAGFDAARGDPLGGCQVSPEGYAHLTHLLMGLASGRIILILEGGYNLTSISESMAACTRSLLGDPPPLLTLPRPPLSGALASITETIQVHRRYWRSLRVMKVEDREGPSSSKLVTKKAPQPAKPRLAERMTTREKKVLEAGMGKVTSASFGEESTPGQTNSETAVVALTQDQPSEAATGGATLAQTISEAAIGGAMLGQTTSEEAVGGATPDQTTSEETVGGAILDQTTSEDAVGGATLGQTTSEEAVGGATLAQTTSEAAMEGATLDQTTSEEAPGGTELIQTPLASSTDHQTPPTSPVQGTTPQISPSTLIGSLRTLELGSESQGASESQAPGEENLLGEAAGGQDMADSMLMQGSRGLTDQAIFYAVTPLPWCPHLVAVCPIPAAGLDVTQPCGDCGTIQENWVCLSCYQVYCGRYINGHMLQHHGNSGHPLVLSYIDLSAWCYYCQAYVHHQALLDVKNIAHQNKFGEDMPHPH
Description: Inhibition of N-terminal GST-tagged full length human HDAC6 expressed in baculovirus system using FTS as substrate preincubated for 10 mins followed by substrate addition and measured after 2 hrs by fluorescence based analysis.

Experiment [3] concerns the target T3, Histone deacetylase 3 (Homo sapiens, UniProt O15379). Description: Inhibition of N-terminal GST-tagged full length human HDAC3 expressed in baculovirus system using FTS as substrate preincubated for 10 mins followed by substrate addition and measured after 2 hrs by fluorescence based analysis.
Experiment [4] has as its target T4, Histone deacetylase 2 (Homo sapiens, UniProt Q92769). As to the kind of experiment: Inhibition of N-terminal GST-tagged full length human HDAC2 expressed in baculovirus system using FTS as substrate preincubated for 10 mins followed by substrate addition and measured after 2 hrs by fluorescence based analysis.
Another experiment has as its target T5, Histone deacetylase 8 (Homo sapiens, UniProt Q9BY41).
T5 sequence (Q9BY41 whole entry): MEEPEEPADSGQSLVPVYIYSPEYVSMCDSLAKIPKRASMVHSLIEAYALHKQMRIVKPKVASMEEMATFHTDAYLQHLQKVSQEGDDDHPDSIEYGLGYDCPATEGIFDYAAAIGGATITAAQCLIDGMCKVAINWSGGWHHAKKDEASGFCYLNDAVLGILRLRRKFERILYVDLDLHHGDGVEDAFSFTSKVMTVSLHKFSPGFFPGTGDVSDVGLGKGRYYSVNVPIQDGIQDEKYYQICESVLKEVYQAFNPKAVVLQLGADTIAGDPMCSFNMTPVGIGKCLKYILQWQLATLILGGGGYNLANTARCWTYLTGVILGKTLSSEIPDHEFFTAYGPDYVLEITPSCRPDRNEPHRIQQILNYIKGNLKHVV
Description: Inhibition of N-terminal GST-tagged full length human HDAC8 expressed in baculovirus system using FTS as substrate preincubated for 10 mins followed by substrate addition and measured after 2 hrs by fluorescence based analysis.

Experiment [5] concerns the target T1, Histone deacetylase 1. Description: Inhibition of human recombinant HDAC1 using ZMAL (Z-(Ac)Lys-AMC) as fluorogenic substrate preincubated for 5 mins followed by substrate addition and measured after 1 hr by fluorescence based analysis.
Experiment [6] has as its target T4, Histone deacetylase 2. As to the kind of experiment: Inhibition of human full length recombinant HDAC2 expressed in baculovirus infected Sf9 cells using RHKKAc as substrate preincubated for 10 mins followed by substrate addition and measured after 2 hrs by fluorescence based analysis.
The target of experiment [7] is T3, Histone deacetylase 3. As to the kind of experiment: Inhibition of recombinant full length human HDAC3 expressed in insect Sf9 cells.
Another experiment concerns the target T6, Histone deacetylase 11 (Homo sapiens, UniProt Q96DB2).
T6 sequence (Q96DB2 whole entry): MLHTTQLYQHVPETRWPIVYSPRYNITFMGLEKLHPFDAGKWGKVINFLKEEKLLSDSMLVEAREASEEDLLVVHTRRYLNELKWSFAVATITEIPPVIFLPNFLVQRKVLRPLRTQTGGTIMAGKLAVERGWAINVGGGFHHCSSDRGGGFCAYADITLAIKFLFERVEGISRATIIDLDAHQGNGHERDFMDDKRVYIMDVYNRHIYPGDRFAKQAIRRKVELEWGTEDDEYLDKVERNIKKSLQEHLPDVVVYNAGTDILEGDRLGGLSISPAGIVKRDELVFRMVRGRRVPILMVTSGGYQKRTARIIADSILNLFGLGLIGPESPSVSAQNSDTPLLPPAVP
Description: Inhibition of HDAC11 (unknown origin).

For experiment [8], the target named is T7, Polyamine deacetylase HDAC10 (Homo sapiens, UniProt Q969S8).
T7 sequence (Q969S8 whole entry): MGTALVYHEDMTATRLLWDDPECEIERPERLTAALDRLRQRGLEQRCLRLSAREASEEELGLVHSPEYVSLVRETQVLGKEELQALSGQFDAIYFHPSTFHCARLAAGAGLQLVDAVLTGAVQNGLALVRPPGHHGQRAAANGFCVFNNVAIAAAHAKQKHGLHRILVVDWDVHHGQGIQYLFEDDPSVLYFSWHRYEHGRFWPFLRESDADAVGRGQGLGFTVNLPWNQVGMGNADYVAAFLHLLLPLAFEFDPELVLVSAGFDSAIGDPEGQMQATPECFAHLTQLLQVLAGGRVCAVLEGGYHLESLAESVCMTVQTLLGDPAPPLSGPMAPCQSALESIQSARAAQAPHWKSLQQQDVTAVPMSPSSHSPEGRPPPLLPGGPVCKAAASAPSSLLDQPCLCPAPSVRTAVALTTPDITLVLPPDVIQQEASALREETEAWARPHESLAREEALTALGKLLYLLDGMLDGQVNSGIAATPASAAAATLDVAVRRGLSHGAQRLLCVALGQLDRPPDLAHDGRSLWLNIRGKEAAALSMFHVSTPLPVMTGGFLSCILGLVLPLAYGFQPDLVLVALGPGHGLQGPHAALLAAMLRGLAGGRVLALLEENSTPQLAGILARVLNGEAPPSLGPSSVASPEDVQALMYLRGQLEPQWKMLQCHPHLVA
As to the kind of experiment: Inhibition of HDAC10 (unknown origin).

T1 sequence (Q13547 whole entry): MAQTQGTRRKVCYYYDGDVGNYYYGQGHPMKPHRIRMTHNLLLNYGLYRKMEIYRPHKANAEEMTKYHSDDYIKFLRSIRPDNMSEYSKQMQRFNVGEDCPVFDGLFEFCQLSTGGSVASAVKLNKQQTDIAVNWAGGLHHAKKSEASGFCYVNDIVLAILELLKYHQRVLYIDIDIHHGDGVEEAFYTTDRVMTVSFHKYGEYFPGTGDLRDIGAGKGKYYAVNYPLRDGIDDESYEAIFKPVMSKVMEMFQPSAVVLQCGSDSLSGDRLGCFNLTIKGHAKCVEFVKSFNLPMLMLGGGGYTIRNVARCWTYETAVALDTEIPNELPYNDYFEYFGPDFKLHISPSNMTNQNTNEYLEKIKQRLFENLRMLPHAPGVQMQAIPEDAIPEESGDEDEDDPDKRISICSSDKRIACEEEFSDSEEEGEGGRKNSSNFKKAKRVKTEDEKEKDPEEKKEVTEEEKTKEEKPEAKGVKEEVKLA
T4 sequence (Q92769 whole entry): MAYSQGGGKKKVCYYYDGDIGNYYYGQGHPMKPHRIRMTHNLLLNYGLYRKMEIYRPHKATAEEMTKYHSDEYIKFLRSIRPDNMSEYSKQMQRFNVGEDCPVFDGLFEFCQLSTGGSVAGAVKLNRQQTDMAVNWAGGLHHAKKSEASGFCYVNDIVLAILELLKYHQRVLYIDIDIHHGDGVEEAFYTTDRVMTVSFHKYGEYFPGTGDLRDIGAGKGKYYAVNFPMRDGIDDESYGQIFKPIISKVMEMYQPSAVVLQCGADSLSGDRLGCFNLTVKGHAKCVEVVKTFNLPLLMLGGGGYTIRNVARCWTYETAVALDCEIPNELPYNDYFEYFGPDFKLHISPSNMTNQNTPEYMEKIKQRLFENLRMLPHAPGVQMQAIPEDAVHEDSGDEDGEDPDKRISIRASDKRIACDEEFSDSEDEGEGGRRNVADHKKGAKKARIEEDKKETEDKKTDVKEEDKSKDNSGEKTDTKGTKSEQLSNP
T3 sequence (O15379 whole entry): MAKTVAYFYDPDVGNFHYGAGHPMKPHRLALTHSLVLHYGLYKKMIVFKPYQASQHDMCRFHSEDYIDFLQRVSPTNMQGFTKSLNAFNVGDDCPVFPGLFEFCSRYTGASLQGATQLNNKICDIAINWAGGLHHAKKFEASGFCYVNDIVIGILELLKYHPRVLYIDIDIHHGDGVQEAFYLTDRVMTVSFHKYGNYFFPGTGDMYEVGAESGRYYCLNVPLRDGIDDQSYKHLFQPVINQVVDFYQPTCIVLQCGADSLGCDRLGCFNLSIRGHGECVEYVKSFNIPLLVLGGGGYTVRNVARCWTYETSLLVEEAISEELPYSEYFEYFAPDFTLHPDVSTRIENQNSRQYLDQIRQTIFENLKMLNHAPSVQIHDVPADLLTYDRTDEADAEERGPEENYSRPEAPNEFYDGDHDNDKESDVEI

One may read the IC50 as the point on the concentration scale where inhibition reaches its midpoint. Take `O=C(CCCCCCC(=O)N/N=C/c1ccc(N(c2ccccc2)c2ccccc2)cc1)NO`: the IC50 was 8.35 nM against Histone deacetylase 1 [1]; 0.4 nM in experiment [2]; 51.6 nM against Histone deacetylase 3 [3]; 15.4 nM at Histone deacetylase 2 [4]; 1430 nM against Histone deacetylase 8.
As for `CC(C)[C@H](N)C(=O)SCC/C=C/[C@@H]1CC(=O)NCc2nc(cs2)C(=O)NC(C)(C)C(=O)N[C@@H](C(C)C)C(=O)O1` [BOCODEPSIN BESYLATE], the IC50 came to 1.2 nM on Histone deacetylase 1 [5], 2.4 nM on Histone deacetylase 2 [6] and 2 nM at Histone deacetylase 3 [7].
For the molecule `Nc1cc(F)ccc1NC(=O)c1ccc(CNC(=O)/C=C/c2cccnc2)cc1` [TUCIDINOSTAT], the IC50 against Histone deacetylase 11 was found to be 432 nM; in experiment [8], 78 nM.
